The target of one test is Histamine H1 receptor (Homo sapiens, UniProt P35367).
In the next test the target is T1, Adenosine receptor A1 (Homo sapiens, UniProt P30542).
T1 sequence (P30542 whole entry): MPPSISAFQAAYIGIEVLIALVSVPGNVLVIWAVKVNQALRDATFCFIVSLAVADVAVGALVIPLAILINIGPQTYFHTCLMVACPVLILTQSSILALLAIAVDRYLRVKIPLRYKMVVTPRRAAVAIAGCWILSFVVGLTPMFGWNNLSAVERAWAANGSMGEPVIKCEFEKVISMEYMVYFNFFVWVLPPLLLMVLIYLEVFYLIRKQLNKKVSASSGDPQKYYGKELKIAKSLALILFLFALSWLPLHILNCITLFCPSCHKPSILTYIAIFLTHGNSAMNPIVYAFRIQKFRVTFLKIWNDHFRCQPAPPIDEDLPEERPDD

Test [1] deals with Beta-1 adrenergic receptor (Homo sapiens, UniProt P08588). The test is classed as functional.
The target in test [2] is T2, 5-hydroxytryptamine receptor 1A (Homo sapiens, UniProt P08908).
T2 sequence (P08908 whole entry): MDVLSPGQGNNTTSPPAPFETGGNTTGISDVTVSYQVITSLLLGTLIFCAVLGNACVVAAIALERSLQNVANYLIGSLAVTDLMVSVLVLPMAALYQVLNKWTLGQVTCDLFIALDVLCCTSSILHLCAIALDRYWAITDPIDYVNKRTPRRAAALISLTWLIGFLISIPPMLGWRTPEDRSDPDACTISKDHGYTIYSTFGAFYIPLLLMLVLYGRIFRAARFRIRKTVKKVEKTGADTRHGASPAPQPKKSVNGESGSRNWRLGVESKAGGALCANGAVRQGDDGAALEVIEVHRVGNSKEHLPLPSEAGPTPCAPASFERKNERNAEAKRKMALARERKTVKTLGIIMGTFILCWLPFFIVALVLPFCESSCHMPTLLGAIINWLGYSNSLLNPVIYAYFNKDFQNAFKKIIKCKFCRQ
The test is classed as functional, cell-based.

The target in test [3] is T3, 5-hydroxytryptamine receptor 2C (Homo sapiens, UniProt P28335).
T3 sequence (P28335 whole entry): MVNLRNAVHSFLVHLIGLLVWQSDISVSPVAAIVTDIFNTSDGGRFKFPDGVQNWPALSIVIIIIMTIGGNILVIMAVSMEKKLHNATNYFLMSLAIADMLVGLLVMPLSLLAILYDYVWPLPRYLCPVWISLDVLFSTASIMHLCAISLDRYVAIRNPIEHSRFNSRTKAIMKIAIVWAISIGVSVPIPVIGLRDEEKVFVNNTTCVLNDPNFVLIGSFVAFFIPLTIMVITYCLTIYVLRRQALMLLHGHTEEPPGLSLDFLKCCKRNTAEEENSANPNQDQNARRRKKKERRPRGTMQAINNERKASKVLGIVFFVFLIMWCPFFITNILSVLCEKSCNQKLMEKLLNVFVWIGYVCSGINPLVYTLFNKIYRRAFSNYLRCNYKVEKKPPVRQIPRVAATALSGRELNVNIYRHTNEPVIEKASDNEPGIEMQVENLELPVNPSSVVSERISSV

Test [4] concerns the target T4, Progesterone receptor (Homo sapiens, UniProt P06401).
T4 sequence (P06401 whole entry): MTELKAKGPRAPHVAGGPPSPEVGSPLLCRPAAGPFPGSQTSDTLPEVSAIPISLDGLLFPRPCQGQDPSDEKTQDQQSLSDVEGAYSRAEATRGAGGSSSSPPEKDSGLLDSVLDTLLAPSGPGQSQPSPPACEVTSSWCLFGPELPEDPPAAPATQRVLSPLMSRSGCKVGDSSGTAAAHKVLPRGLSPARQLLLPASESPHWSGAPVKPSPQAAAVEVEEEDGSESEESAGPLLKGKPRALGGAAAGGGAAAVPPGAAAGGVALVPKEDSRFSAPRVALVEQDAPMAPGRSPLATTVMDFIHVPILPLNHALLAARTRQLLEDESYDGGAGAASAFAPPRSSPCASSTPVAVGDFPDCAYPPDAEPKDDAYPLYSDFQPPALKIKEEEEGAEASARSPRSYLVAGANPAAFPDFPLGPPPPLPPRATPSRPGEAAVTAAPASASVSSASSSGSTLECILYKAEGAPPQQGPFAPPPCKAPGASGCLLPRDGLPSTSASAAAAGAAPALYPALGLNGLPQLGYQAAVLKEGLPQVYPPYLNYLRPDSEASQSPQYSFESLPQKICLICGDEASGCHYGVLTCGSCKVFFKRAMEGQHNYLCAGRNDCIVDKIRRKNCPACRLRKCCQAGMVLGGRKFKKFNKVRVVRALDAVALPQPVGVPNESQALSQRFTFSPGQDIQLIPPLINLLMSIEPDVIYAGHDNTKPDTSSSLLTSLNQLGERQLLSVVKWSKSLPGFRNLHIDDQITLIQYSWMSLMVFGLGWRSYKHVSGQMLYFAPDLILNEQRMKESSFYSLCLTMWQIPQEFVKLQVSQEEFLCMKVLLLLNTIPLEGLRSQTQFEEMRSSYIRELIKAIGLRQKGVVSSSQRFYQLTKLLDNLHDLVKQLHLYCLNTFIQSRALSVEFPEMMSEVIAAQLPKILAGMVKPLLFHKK
The class given is functional.

Test [5] deals with T5, Alpha-2B adrenergic receptor (Homo sapiens, UniProt P18089).
T5 sequence (P18089 whole entry): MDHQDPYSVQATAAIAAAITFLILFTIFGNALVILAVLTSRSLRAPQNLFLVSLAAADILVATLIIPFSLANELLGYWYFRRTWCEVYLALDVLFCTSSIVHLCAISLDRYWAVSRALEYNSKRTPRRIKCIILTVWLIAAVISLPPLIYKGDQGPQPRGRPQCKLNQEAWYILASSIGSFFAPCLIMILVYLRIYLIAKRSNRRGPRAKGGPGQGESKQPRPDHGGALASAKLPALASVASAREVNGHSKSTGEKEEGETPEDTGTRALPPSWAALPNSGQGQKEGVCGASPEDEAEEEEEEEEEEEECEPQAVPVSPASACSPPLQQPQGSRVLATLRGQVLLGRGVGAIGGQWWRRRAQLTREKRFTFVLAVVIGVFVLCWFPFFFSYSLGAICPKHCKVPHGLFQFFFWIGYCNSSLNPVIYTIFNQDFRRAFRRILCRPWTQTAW

Test [6] concerns the target T4, Progesterone receptor. The test is classed as functional. The source holds these as a separate data set.

Where only a bound is given, the exact number is not on record here.

The term AC50 denotes the midpoint of the concentration-response curve, whichever way the signal moves.
Further: assay procedure not described here.

Sequence of Beta-1 adrenergic receptor (P08588 whole entry): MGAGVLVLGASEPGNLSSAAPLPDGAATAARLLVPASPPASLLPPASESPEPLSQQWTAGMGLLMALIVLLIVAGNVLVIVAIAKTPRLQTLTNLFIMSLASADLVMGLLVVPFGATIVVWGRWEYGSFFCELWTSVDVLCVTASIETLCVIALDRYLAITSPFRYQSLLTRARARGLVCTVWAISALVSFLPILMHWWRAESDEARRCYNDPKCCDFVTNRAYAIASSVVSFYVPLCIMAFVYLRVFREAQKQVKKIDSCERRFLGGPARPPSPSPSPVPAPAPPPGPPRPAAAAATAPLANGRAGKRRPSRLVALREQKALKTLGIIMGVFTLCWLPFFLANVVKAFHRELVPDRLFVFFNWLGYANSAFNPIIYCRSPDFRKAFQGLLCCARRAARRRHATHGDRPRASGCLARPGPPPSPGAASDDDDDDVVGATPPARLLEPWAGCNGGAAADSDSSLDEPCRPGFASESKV
Sequence of Histamine H1 receptor (P35367 whole entry): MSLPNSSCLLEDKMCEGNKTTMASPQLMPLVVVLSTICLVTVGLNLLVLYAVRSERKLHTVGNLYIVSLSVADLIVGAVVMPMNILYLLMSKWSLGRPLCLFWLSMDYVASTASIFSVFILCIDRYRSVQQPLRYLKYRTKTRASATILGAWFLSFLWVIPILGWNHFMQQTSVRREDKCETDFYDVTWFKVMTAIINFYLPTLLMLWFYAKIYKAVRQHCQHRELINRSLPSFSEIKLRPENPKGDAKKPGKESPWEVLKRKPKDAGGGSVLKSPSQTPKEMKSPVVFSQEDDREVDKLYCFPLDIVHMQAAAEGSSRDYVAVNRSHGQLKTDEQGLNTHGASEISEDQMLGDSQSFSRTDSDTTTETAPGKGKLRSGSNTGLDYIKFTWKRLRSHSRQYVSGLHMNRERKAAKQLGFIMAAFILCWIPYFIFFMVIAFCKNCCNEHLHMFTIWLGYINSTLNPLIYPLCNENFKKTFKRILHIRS

As for `CO[C@@]1(NC(=O)Cc2cccs2)C(=O)N2C(C(=O)O)=C(COC(N)=O)CS[C@@H]21` [CEFOXITIN], the AC50 (at Histamine H1 receptor; at Adenosine receptor A1; in test [1]; in test [2]; in test [3]; at Progesterone receptor [4]) was greater than 30 µM throughout. Also, the AC50 (in test [5]; on Progesterone receptor [6]) was greater than 30 µM each time.

For the compound `CCN(CC)CCOC(=O)c1ccc(N)cc1Cl` [CHLOROPROCAINE], the AC50 on Histamine H1 receptor is greater than 30 µM; at Adenosine receptor A1 it was greater than 30 µM; in test [1] it was greater than 30 µM; in test [2], greater than 30 µM; in test [3], 17 µM; at Progesterone receptor [4], greater than 30 µM. Also, the AC50 (in test [5]; on Progesterone receptor [6]) was greater than 30 µM each time.

As for `COCCOC(=O)C1=C(C)NC(C)=C(C(=O)OC/C=C/c2ccccc2)C1c1cccc([N+](=O)[O-])c1` (configuration not stated) [CILNIDIPINE], the AC50 (on Histamine H1 receptor; at Adenosine receptor A1; in test [1]; in test [2]; in test [3]; at Progesterone receptor [4]) was greater than 30 µM in each case. The AC50 (in test [5]; at Progesterone receptor [6]) was greater than 30 µM in each case.

Turning to `CCC(C)(Oc1ccc(C2(c3ccc(OC(C)(CC)C(=O)O)cc3)CCCCC2)cc1)C(=O)O` (configuration not stated) [CLINOFIBRATE], the AC50 (at Histamine H1 receptor; on Adenosine receptor A1; in test [1]; in test [2]; in test [3]; on Progesterone receptor [4]) was greater than 30 µM each time. Also, the AC50 (in test [5]; on Progesterone receptor [6]) was greater than 30 µM in each case.

For `CCCCC[C@H](O)/C=C/[C@H]1[C@H](O)CC(=O)[C@@H]1C/C=C\CCCC(=O)O` [DINOPROSTONE], the AC50 (at Histamine H1 receptor; at Adenosine receptor A1; in test [1]; in test [2]; in test [3]; at Progesterone receptor [4]) was greater than 30 µM each time. The AC50 in test [5] is greater than 30 µM; at Progesterone receptor [6] it was 4.5 µM.

With `CC(C)c1cc2c(cc1S(=O)(=O)O)[C@@]1(C)CCC[C@@](C)(C(=O)O)[C@@H]1CC2` [ECABET], the AC50 (on Histamine H1 receptor; at Adenosine receptor A1; in test [1]; in test [2]; in test [3]; at Progesterone receptor [4]) was greater than 30 µM in each case. The AC50 (in test [5]; on Progesterone receptor [6]) was greater than 30 µM throughout.

Take `COC(=O)N[C@@H](C)CNc1nccc(-c2cn(C(C)C)nc2-c2cc(Cl)cc(NS(C)(=O)=O)c2F)n1` [ENCORAFENIB]: the AC50 (on Histamine H1 receptor; on Adenosine receptor A1; in test [1]; in test [2]; in test [3]; at Progesterone receptor [4]) was greater than 30 µM throughout. In addition, the AC50 (in test [5]; on Progesterone receptor [6]) was greater than 30 µM in each case.

Take `CCCN(CC)C(CC)C(=O)Nc1c(C)cccc1C` (configuration not stated) [ETIDOCAINE]: the AC50 (at Histamine H1 receptor; at Adenosine receptor A1; in test [1]; in test [2]; in test [3]; at Progesterone receptor [4]) was greater than 30 µM throughout. Further, the AC50 (in test [5]; on Progesterone receptor [6]) was greater than 30 µM throughout.

On to `Clc1ccc(C(Cn2ccnc2)OCc2ccc(Sc3ccccc3)cc2)c(Cl)c1` (configuration not stated) [FENTICONAZOLE], for which the half-maximal activity concentration (AC50) (at Histamine H1 receptor; at Adenosine receptor A1; in test [1]; in test [2]; in test [3]; at Progesterone receptor [4]) was greater than 30 µM each time. Besides, the results for the AC50 (in test [5]; on Progesterone receptor [6]) were 12 µM and 25 µM, respectively.

Turning to `Nc1nc(F)nc2c1ncn2[C@@H]1O[C@H](COP(=O)(O)O)[C@@H](O)[C@@H]1O` [FLUDARABINE PHOSPHATE], the concentration at half-maximal activity (AC50) (on Histamine H1 receptor; at Adenosine receptor A1; in test [1]; in test [2]; in test [3]; at Progesterone receptor [4]) was greater than 30 µM in each case. Moreover, the AC50 (in test [5]; on Progesterone receptor [6]) was greater than 30 µM throughout.

For the compound `O=C(O)c1ccccc1OP(=O)(O)O` [FOSFOSAL], the AC50 (at Histamine H1 receptor; at Adenosine receptor A1; in test [1]; in test [2]; in test [3]; at Progesterone receptor [4]) was greater than 30 µM in each case. Moreover, the AC50 (in test [5]; on Progesterone receptor [6]) was greater than 30 µM in each case.

Take `CCCCCCOC(=O)CCC(=O)CN` [HEXAMINOLEVULINATE]: the AC50 is greater than 30 µM on Histamine H1 receptor; greater than 30 µM on Adenosine receptor A1; greater than 30 µM in test [1]; greater than 30 µM in test [2]; 24 µM in test [3]; greater than 30 µM on Progesterone receptor [4]. Also, the AC50 (in test [5]; at Progesterone receptor [6]) was greater than 30 µM each time.

With `Cc1ccc(NC(=O)C2(c3ccc4c(c3)OC(F)(F)O4)CC2)nc1-c1cccc(C(=O)O)c1` [LUMACAFTOR], the AC50 (at Histamine H1 receptor; at Adenosine receptor A1; in test [1]; in test [2]; in test [3]; on Progesterone receptor [4]) was greater than 30 µM in each case. For the same compound, the concentration at half-maximal activity (AC50) (in test [5]; at Progesterone receptor [6]) was greater than 30 µM each time.

As for `CC(C)OC(=O)C(C(=O)OC(C)C)=C1SC=CS1` [MALOTILATE], the AC50 (at Histamine H1 receptor; on Adenosine receptor A1; in test [1]; in test [2]; in test [3]; on Progesterone receptor [4]) was greater than 30 µM throughout. The AC50 (in test [5]; at Progesterone receptor [6]) was greater than 30 µM each time.

The values are drawn from ChEMBL document CHEMBL5291721, “A preclinical secondary pharmacology resource illuminates target-adverse drug reaction associations of marketed drugs” (Nat Commun, 2023).
